Assay [1] deals with R7 in Jurkat cells. Kind of assay: p24 ELISA of supernatant after R7 co-transfection. Type of assay: cell-based, HIV. The protocol:
Jurkat cells, HEK293 cells, THP-1 monocytes and U937 monocytes were co-transfected with either R7 […] Nef SMR wt (antagonist) or with R7+Nef SMR mt (nonfunctional antagonist) by Chariot™ Kit. The transfection efficiency was 30-40%.
R7 is a clone containing the viral genome. Transfection into cells allows expression of the viral genome and ultimately virion formation and release. The amount of virion production in the extracellular supernatant is measured through p24 protein (viral protein).
At 2 hours, 3 days, 6 days, 9 days, 13 days, 15 days, 17 days, 20 days, 23 days, 27 days and 36 days post-transfection, 0.5 ml supernatant were collected from each plate, mixed with 0.5 ml fresh media and analyzed by p24 ELISA assay. 1.5 ml of supernatant were collected from each plate and spun in a TLA100 rotor at 400,000×g for 1 hour to create the pellets. The pellets were used for Western blot analysis with p24 mAb and Nef mAb.

The test system of assay [2] is Mortalin/GRP75 and other cellular factors of Jurkat cell lysates. Put plainly: FLAG immuno-precipitation pulldown of cellular factors, MS and Western blot. Type of assay: binding. Particulars: FLAG IP on Jurkat cell lysates. The protocol: SMRwt vs. SMRmt peptides were used in conjunction with FLAG immuno-precipitation on Jurkat cell lysates to pulldown cellular factors that interacted with the SMRwt antagonist, but not with the SMRmt negative control. The cellular factor(s) that interact with the antagonist are analyzed by the FLAG IP assay. Briefly, cell lysates are combined with AminoLink Plus resin coupled to FLAG-tagged SMR peptides. SMR-specific cellular proteins (ROY) bind to the SMR peptides on the resin. Non-specific contaminants (G BIV) are washed off of the resin and removed by centrifugation. The SMR-specific cell proteins (ROY) are eluted and collected. Some strongly bound contaminants (V) are also eluted and collected.
Mortalin interacts with p53, and is shown to be involved in apoptosis and vesicle transport (MAC complex). It is also found in microvesicles released by tumor cells.
The gel was also Western probed with α-Mortalin antibody. A protein with a molecular weight of ˜75 kDa was detected in the lanes containing the cell lysate, the antagonist eluate, and the antagonist affinity resin (FIG. 13, panel B, Lanes 1, 3, and 5), but not in the negative control or negative control peptide eluate's lanes (FIG. 13, panel B, Lanes 2 and 4).

The test system of assay [3] is HIV-1wtNef-GFP vesicle secretion in Jurkat cells. Put plainly: Nef-GFP co-transfection secretion assay. Format: cell-based. The following applies: 500 ng HIV-1wtNef-GFP + 7.8-500 ng peptide, Chariot. The protocol:
In another experiment, Jurkat cells were co-transfected with 500 ng HIV-1wtNef-GFP and 7.8-500 ng of SMRwt peptide by Chariot. As shown in FIG. 3A the SMRwt peptide inhibits the vesicle secretion in Jurkat cells.

The test system of assay [4] is R7 in Jurkat cells. Put plainly: Confocal microscopy of p24 in R7 transfected cells. Format: cell-based, HIV. Particulars: day 3, 6, 10, 14, 17 after transfection with R7, accumulation in cytoplasm day 3, 6, 10. The source says:
FIG. 4A is a composite of diagrams showing ELISA analysis of p24 concentration in Jurkat cells (panel A), HEK293 cells (panel B), THP-1 Monocytes (panel C) and U937 monocytes (panel D). FIG. 4B is a composite of confocal microscope pictures showing blocking of p24 release in Jurkat cells by SMRwt peptide (panel A) but not by SMRrmt peptide (panel B). FIG. 4C is a composite of confocal and electron microscope pictures showing viral particle distribution in Jurkat cells at day 6 post-transfection with R7 and SMRwt peptide (panel A-1) or with R7 and SMRmt peptide (panel B-1). FIG. 4D is a composite of confocal and electron microscope pictures showing viral particle distribution in Jurkat cells at day 14 post-transfection with R7 and SMRwt peptide (panel A-2) or with R7 and SMRmt peptide (panel B-2), FIG. 4E is a composite of confocal and electron microscope pictures showing viral particle distribution in subcellular structures in Jurkat cells at day 6 post-transfection with R7 and SMRwt peptide (panel A-1) or with R7 and SMRmt peptide (panel B-1) in Jurkat cells and at day 14 post-transfection with R7 and SMRwt peptide (panel A-2) or with R7 and SMRmt peptide (panel B-2) in Jurkat cells.
The effect of SMRwt, however, seems to be temporary. It appears that Jurkat and HEK cells can degrade the peptide over time, while U937 monocytes cannot degrade the peptide. […]

For another assay, the system named is pNL4-3 in 293 cells. Put plainly: p24 assay of virion production after pNL4-3 co-transfection. Format: cell-based, HIV. The following applies: for p24: co-transfected with pNL4-3; for Effect (a/b): p24 of sample / p24 of pNL4-3 + sM1. Here is the method:
pNL4-3 is a clone containing the viral genome. Transfection into cells allows expression of the viral genome and ultimately virion formation and release. The amount of virion production in the extracellular supernatant is measured through p24 protein (viral protein). Samples were collected at 48 hours and 96 hours post-infection.
At 48 hr postinfection two plates in each group were removed and analyzed by: • a. p24 assay • b. Nef assay • c. Infectivity assay • At 96 hr postinfection the other two plates in each group were removed and analyzed by: • a. p24 assay • b. Nef assay • c. Infectivity assay

A further assay has as its system R7; Magi/CXCR4 cells. Put plainly: Magi assay of viral infectivity, supernatants of THP-1 monocytes. Type of assay: cell-based, HIV. Particulars: supernatant from transfected THP-1 monocytes. The protocol: Magi/CXCR4 cells were exposed to 48 hour conditioned supernatants from Jurkat cells, HEK293 cells, THP-1 monocytes, or U937 monocytes transfected with either R7 viral DNA/SMRwt peptide or R7 viral DNA/SMRmt peptide. These cells were then fixed and stained with X-Gal. […] Cells productively infected with R7 are easily visualized under light microscopy by their blue nuclear staining. Magnification ×20. […] This is indicative of virus in the conditioned supernatant from the R7/negative control peptide treated cells and no virus in conditioned supernatant from the R7/antagonist treated cells.
These Magi cultures were quantitated for blue staining cells. The data was plotted as a function of time post-transfection. […] This is possibly due to antagonism of trafficking of viral component(s) to the cytoplasmic membrane. Ultimately this would shutdown the HIV infection and block progression to AIDS.

As to H-VGFPVAAVGFPVDYKDDDDK-OH [SMRwt], the “time post transfection at which p24 concentration increased” value in the assay with R7 in Jurkat cells [1] amounted to 13 days. In assay [2], the “~75 kDa protein in peptide eluate, Western probed with α-Mortalin antibody” value is given as “detected”. In addition, the “cellular proteins in bands of the SMRwt lane but not the SMRmt lane (MALDI TOF MS/MS, LC/MS/MS)” value in assay [2] (SDS PAGE) is given as “Mortalin/GRP75; Myosin 10; Vimentin; GRP78; HSC70”. In addition, the “vesicle secretion (Nef-GFP)” value in assay [3] is on record as “inhibits the vesicle secretion in Jurkat cells in a dose-dependent manner”. Further, the “p24 release (confocal microscopy)” value with R7 in Jurkat cells [4] was “blockage of p24 release”. Besides, the p24 in the assay with pNL4-3 in 293 cells (293, 48 hr) was 90 pg/mL; with pNL4-3 in 293 cells (293, 96 hr), 345 pg/mL. For the same substance, the “Effect (a/b)” value with pNL4-3 in 293 cells (293, 48 hr) is on record as 2; with pNL4-3 in 293 cells (293, 96 hr), 0.359. For the same substance, in the assay with R7; Magi/CXCR4 cells, the “numbers of infected Magi cells as a function of time post-transfection” value was “significantly reduced”.
In the case of “H2N-AGFPVAAAGFPVDYKDDDDK-OH (H-AGFPVAAAGFPVDYKDDDDK-OH) [SMRmt]”, in the assay on R7 in Jurkat cells [1], the “time post transfection at which p24 concentration increased” value turned out to be 3 days. Also, in the assay with pNL4-3 in 293 cells (293, 48 hr), the p24 amounted to 30 pg/mL and the “Effect (a/b)” value worked out at 0.67. In the assay with pNL4-3 in 293 cells (293, 96 hr), the p24 came out at 1125 pg/mL and the “Effect (a/b)” value was 1.17.

The values are drawn from patent US8431530B2, “Compositions and methods for treating aids or cancer by inhibiting the secretion of microparticles” (priority 2009, dated 2013).
